The source of these data is the SangsterLogP compilation.

For `CN1CCN(CCCN2c3ccccc3Sc3ccccc32)CC1`, the logP (commonly a log measure of how a compound divides between an organic and an aqueous phase) was 4.
Then `CN1CCCCC1CCN1c2ccccc2Sc2ccc(S(C)(=O)=O)cc21` (stereo not drawn), with 4.45; and `C=CCN1CCCC1CNC(=O)c1cc(S(=O)(=O)NC)c(N)cc1OC` (stereo not drawn), with 1.69.
Then `CN(C)CCCN1c2ccccc2Sc2ccccc21`, with 4.64.
Then `CCN(CC)CCCN(c1ccccc1)C1Cc2ccccc2C1`, with 4.86; and `COc1ccc2c(c1)-c1c(ccc(OC)c1O)CC(CCc1ccccc1)N(C)CC2` (stereo not drawn), with 4.85; and `CC(C)NCCCC1(C(N)=O)c2ccccc2-c2ccccc21`, with 3.11.
`CC(C)NCC(O)COc1cccc2c1N(C(=O)c1cccnc1)CCC2` (stereo not drawn): the log partition coefficient (logP) was found to be 1.63.
Molecule `CNC(=O)Nc1c(OCCN2CCCC2)c(OC)c2occc2c1OC` came in with a log partition coefficient (logP) of 1.38.
Then `C=CCN1CCCC1CNC(=O)c1cc(S(N)(=O)=O)cc(OC)c1OC` (stereo not drawn), with 1.47.
On to `CC(C)(C)c1cc(C(O)CCC2CCNCC2)c2ccccc2n1` (stereo not drawn), for which the logP came to 3.63.
Then `O=C(NCC1CCCCN1)c1cc(OCC(F)(F)F)ccc1OCC(F)(F)F` (stereo not drawn), with 3.78; and `CCN(CC)CCNC(=O)c1ccc(N)cc1`, with 0.82.
